In patent publication US20150175599A1, “FAAH Inhibitors” (Ironwood Pharmaceuticals, Inc., priority 2010, published 2015) one finds IC50 data, which are given here for 21 compounds.

SMILES strings stand for the structures.

The target of the test is T1, FAAH (Rattus norvegicus, UniProt P97612).
T1 construct: For the assay of FAAH activity in rat brain membrane (RBM) homogenates; tissue Charles River (animals); host or cells: rat whole brain, membrane fraction
T1 sequence (P97612 1-579): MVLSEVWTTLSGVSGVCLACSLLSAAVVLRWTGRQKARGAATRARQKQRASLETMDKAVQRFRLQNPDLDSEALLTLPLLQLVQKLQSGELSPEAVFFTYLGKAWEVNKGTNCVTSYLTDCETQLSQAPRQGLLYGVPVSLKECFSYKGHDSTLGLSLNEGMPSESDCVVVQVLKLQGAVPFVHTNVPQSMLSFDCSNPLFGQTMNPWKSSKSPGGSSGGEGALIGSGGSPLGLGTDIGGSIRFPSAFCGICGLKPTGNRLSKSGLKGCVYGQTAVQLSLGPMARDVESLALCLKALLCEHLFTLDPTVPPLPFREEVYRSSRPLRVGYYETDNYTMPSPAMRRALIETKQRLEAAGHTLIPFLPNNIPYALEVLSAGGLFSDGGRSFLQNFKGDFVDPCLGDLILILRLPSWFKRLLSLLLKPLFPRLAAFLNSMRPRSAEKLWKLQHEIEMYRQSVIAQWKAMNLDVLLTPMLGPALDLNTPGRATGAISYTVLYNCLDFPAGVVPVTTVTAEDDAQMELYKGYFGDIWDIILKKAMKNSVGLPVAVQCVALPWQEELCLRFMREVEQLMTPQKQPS
The experiment in a line: FAAH inhibition, rat brain membrane homogenate assay. It is filed as biochemical. As to conditions: rat brain homogenate; average activity; read-out: Rat Brain Extract FAAH IC50. On the procedure: Adult rats (Charles River CD strain, female, 200 g) were anaesthetized with isofluorane and rapidly decapitated. Each brain was quickly removed and chilled in tubes (3 brains per tube) on ice. About 25 mL of “homogenization buffer” (20 mM HEPES buffer, pH 7.0, with 1 mM MgCl2) was added to 15 to 20 g of brain. The brains were homogenized on ice for 1 minute using an Omni GLH homogenizer (Omni International, Marietta, Ga.). The homogenates were then transferred to three centrifuge tubes and centrifuged at 36,500 g for 20 minutes at 4° C. The supernatant was discarded and each pellet was re-suspended in 25 mL homogenization buffer. The re-suspended material was again centrifuged (36,500 g, 20 minutes at 4° C.). Pellets were combined by re-suspension in 10 mL of homogenization buffer and incubated in a 37° C. water bath for 15 minutes. The tubes were then placed on ice for 5 minutes followed by centrifugation at 36,500 g for 20 minutes at 4° C. The supernatant was discarded and the membrane pellets were then re-suspended in 40 mL of “re-suspension buffer” (50 mM Tris-HCl buffer, pH 7.4, containing 1 mM EDTA and 3 mM MgCl2). A Bradford Protein assay was performed to determine protein concentration. The protein was aliquotted into screw cap Cryo tubes each containing −400 μL, flash-frozen in liquid nitrogen and stored at −80° C. until used for the assay. A similar protocol was used to obtain brain membrane homogenates from mice
FAAH activity was assayed in the respective homogenates described herein (Rat brain, Mouse brain or Human brain) with certain of the exemplary compounds described above using a modification of the method of Omeir et al. (1995 Life Sci. 56:1999) and Fowler et al. (1997 J. Pharmacol. Exp. Ther. 283:729). For the assay of FAAH activity in rat brain membrane (RBM) homogenates, RBM homogenates (7 μg protein in 20 μL final volume of 10 mM Tris pH 6.5) were mixed with 180 μL of a mixture of the following: […] unlabelled anandamide (AEA), 0.03 Ci radio labeled anandamide [ethanolamine 1-^3H](40-60 Ci/mmol; product number ART-626, American Radiolabelled Chemicals, St. Louis, Mo.), 1 mg/mL Bovine Serum Albumin (fatty acid-free BSA, electrophoresis grade, Sigma, St. Louis, Mo.), 10 mM Tris-HCl (pH 6.5), and 1 mM EDTA in the presence and absence of test compounds (vehicle was DMSO at a final concentration of 1%) and incubated for 10 minutes at 37° C. Samples were placed on ice to terminate the reactions.
The ^3H-ethanolamine product and un-reacted ^3H-anandamide substrate were then separated by either: (1) using chloroform/methanol extraction or (2) passing the reaction mixture through a glass fiber filter containing activated charcoal. Samples were extracted with chloroform/methanol by adding 0.4 mL of chloroform/methanol (1:1 v/v), vigorously mixing the samples, and separating the aqueous and organic phases by centrifugation. Radioactivity (corresponding to FAAH-catalyzed breakdown of ^3H-anandamide) found in aliquots (0.2 mL) of the aqueous phase was determined by liquid scintillation counting with quench correction. IC50 values were determined as described by Jonsson et al. (2001 Br. J Pharmacol. 133:1263). Alternatively, reactions were purified using a modification of the solid-phase extraction method described by Wilson et al (2003 Anal. Biochem. 318: 270). This method was modified as follows: after reactions were incubated at 37° C. for 10 minutes and chilled on ice, the reaction mixtures were acidified by adding 10 μL of sodium phosphate solution[0.5M (pH 2.0)]. Next, 90 μL aliquots of the acidified reaction mixtures were applied to activated charcoal (that had been previously washed with methanol as described by Wilson et al. (supra)) containing 80 μL of water on top of a glass fiber filter, centrifuged, and the radioactivity in the eluate was counted as described previously by Wilson et al. (supra). […]
As for `COc1ccc(Cn2c(C)c(C(=O)C(=O)Nc3ccnc(OC)c3)c3cc(OC)c(Cl)cc32)nc1` [Compound 98, 2-(6-chloro-5-methoxy-1-((5-methoxypyridin-2-yl)methyl)-2-methyl-1H-indol-3-yl)-N-(2-methoxypyridin-4-yl)-2-oxoacetamide], the concentration for half-maximal inhibition (IC50) is below 100 nM.

For `COc1cc(NC(=O)C(=O)c2c(C)n(Cc3ncc(Cl)cc3F)c3cc(Cl)c(OC)cc23)ccn1` [Compound 97, 2-(6-chloro-1-((5-chloro-3-fluoropyridin-2-yl)methyl)-5-methoxy-2-methyl-1H-indol-3-yl)-N-(2-methoxypyridin-4-yl)-2-oxoacetamide], the IC50 is below 100 nM.

For the compound `COc1cc(NC(=O)C(=O)c2c(C)n(Cc3ccc(Cl)cc3)c3cccc(OC)c23)ccn1` [Compound 45, 2-(1-(4-chlorobenzyl)-4-methoxy-2-methyl-1H-indol-3-yl)-N-(2-methoxypyridin-4-yl)-2-oxoacetamide], the IC50 was below 100 nM.

As to `COc1ccc2c(c1)c(C(=O)C(=O)Nc1ccnc(OC)c1)c(C)n2Cc1ccc(S(C)(=O)=O)cc1` [Compound 39, 2-(5-methoxy-2-methyl-1-(4-(methylsulfonyl)benzyl)-1H-indol-3-yl)-N-(2-methoxypyridin-4-yl)-2-oxoacetamide], the IC50 is 1000 to 10000 nM.

In the case of `COc1cc(NC(=O)C(=O)c2c(C)n(Cc3ncc(Cl)cc3Cl)c3ccccc23)ccn1` [Compound 31, 2-(1-((3,5-dichloropyridin-2-yl)methyl)-2-methyl-1H-indol-3-yl)-N-(2-methoxypyridin-4-yl)-2-oxoacetamide], the IC50 is below 100 nM.

With `COc1ccc(Cn2c(C)c(C(=O)C(=O)Nc3ccnc(OC)c3)c3cc(OC)ccc32)nc1` [Compound 43, 2-(5-methoxy-1-((5-methoxypyridin-2-yl)methyl)-2-methyl-1H-indol-3-yl)-N-(2-methoxypyridin-4-yl)-2-oxoacetamide], the IC50 was below 100 nM.

Regarding `COc1ccc(Cn2c(C)c(C(=O)C(=O)Nc3ccnc(OC)c3)c3cc(C)ccc32)nc1` [Compound 69, 2-(1-((5-methoxypyridin-2-yl)methyl)-2,5-dimethyl-1H-indol-3-yl)-N-(2-methoxypyridin-4-yl)-2-oxoacetamide], the IC50 is below 100 nM.

Turning to `COc1ccc2c(c1)c(C(=O)C(=O)Nc1ccnc(OC)c1)c(C)n2Cc1ccccn1` [Compound 77, 2-(5-methoxy-2-methyl-1-(pyridin-2-ylmethyl)-1H-indol-3-yl)-N-(2-methoxypyridin-4-yl)-2-oxoacetamide], the IC50 is below 100 nM.

`COc1cc(NC(=O)C(=O)c2c(C)n(Cc3ccc(Cl)cc3)c3ccc(N(C)C(=O)OC(C)(C)C)cc23)ccn1` [Compound 7, Tert-butyl(1-(4-chlorobenzyl)-3-(2-((2-methoxypyridin-4-yl)amino)-2-oxoacetyl)-2-methyl-1H-indol-5-yl)(methyl)carbamate]: the IC50 was in the range of 100 to 1000 nM.

For the compound `COc1ccc2c(c1)c(C(=O)C(=O)Nc1ccnc(OC)n1)c(C)n2Cc1ccc(Cl)cc1` [Compound 46, 2-(1-(4-chlorobenzyl)-5-methoxy-2-methyl-1H-indol-3-yl)-N-(2-methoxypyrimidin-4-yl)-2-oxoacetamide], the 50% inhibitory concentration (IC50) was below 100 nM.

With `COc1cc(NC(=O)C(=O)c2c(C)n(Cc3ccc(Cl)cc3)c3cc(C)c(OC)cc23)ccn1` [Compound 74, 2-(1-(4-chlorobenzyl)-5-methoxy-2,6-dimethyl-1H-indol-3-yl)-N-(2-methoxypyridin-4-yl)-2-oxoacetamide], the half-maximal inhibitory concentration (IC50) was below 100 nM.

Turning to `COc1ccc2c(c1)c(C(=O)C(=O)Nc1cc(Cl)nc(OC)c1)c(C)n2Cc1ccc(Cl)cc1` [Compound 47, N-(2-chloro-6-methoxypyridin-4-yl)-2-(1-(4-chlorobenzyl)-5-methoxy-2-methyl-1H-indol-3-yl)-2-oxoacetamide], the IC50 was below 100 nM.

For the compound `COc1cc(NC(=O)C(=O)c2c(C)n(Cc3ccc(Cl)cc3)c3ccc(C(F)(F)F)cc23)ccn1` [Compound 21, 2-(1-(4-chlorobenzyl)-2-methyl-5-(trifluoromethyl)-1H-indol-3-yl)-N-(2-methoxypyridin-4-yl)-2-oxoacetamide], the IC50 is below 100 nM.

Regarding `COc1cc(NC(=O)C(=O)c2c(C)n(Cc3ncc(Cl)cc3F)c3ccc(C)cc23)ccn1` [Compound 33, 2-(1-((5-chloro-3-fluoropyridin-2-yl)methyl)-2,5-dimethyl-1H-indol-3-yl)-N-(2-methoxypyridin-4-yl)-2-oxoacetamide], the IC50 is below 100 nM.

On to `COc1ccc2c(C(=O)C(=O)Nc3ccnc(OC)c3)c(C)n(Cc3ccc(Cl)cc3)c2c1` [Compound 48, 2-(1-(4-chlorobenzyl)-6-methoxy-2-methyl-1H-indol-3-yl)-N-(2-methoxypyridin-4-yl)-2-oxoacetamide], for which the IC50 is below 100 nM.

Take `CNCc1ccc2c(c1)c(C(=O)C(=O)Nc1ccnc(OC)c1)c(C)n2Cc1ccc(Cl)cc1` [Compound 25, 2-(1-(4-chlorobenzyl)-2-methyl-5-((methylamino)methyl)-1H-indol-3-yl)-N-(2-methoxypyridin-4-yl)-2-oxoacetamide]: the IC50 lay within 1000 to 10000 nM.

On to `COc1cc(NC(=O)C(=O)c2c(C)n(Cc3ccc(Cl)cc3)c3c(OC)cccc23)ccn1` [Compound 51, 2-(1-(4-chlorobenzyl)-7-methoxy-2-methyl-1H-indol-3-yl)-N-(2-methoxypyridin-4-yl)-2-oxoacetamide], for which the IC50 was 1000 to 10000 nM.

For the compound `COc1cc(NC(=O)C(=O)c2c(C)n(Cc3ccc(Cl)cc3)c3cc(OC)c(OC)cc23)ccn1` [Compound 44, 2-(1-(4-chlorobenzyl)-5,6-dimethoxy-2-methyl-1H-indol-3-yl)-N-(2-methoxypyridin-4-yl)-2-oxoacetamide], the IC50 is below 100 nM.

On to `COc1cc(NC(=O)C(=O)c2c(C)n(Cc3ccc(Cl)cn3)c3cc(F)c(OC)cc23)ccn1` [Compound 64, 2-(1-((5-chloropyridin-2-yl)methyl)-6-fluoro-5-methoxy-2-methyl-1H-indol-3-yl)-N-(2-methoxypyridin-4-yl)-2-oxoacetamide], for which the IC50 was below 100 nM.

For the compound `COc1cnc2c(c1)c(C(=O)C(=O)Nc1ccnc(OC)c1)c(C)n2Cc1ncc(Cl)cc1Cl` [Compound 29, 2-(1-((3,5-dichloropyridin-2-yl)methyl)-5-methoxy-2-methyl-1H-pyrrolo[2,3-b]pyridin-3-yl)-N-(2-methoxypyridin-4-yl)-2-oxoacetamide], the IC50 is below 100 nM.

`COc1cnc2c(c1)c(C(=O)C(=O)Nc1ccnc(OC)c1)c(C)n2Cc1ccc(Cl)cn1` [Compound 41, 2-(1-((5-chloropyridin-2-yl)methyl)-5-methoxy-2-methyl-1H-pyrrolo[2,3-b]pyridin-3-yl)-N-(2-methoxypyridin-4-yl)-2-oxoacetamide]: the IC50 is below 100 nM.
